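Protocol summary: plate cells (96-well), add compound at 5 concentrations, incubate 48 h, interpolate endpoints linearly. GI50 marks 50% less growth. TGI: total growth inhibition.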
What was measured:
Assay in all cases: DTP human tumour cell line panel, 48 h
A549 NSCLC = system: A549 NSCLC
NCI-H522 lung = system: NCI-H522 lung
DU-145 prostate = system: DU-145 prostate
SF-539 CNS = system: SF-539 CNS
BT-549 breast = system: BT-549 breast
SNB-75 CNS = system: SNB-75 CNS
SK-MEL-28 melanoma = system: SK-MEL-28 melanoma
MDA-MB-435 = system: MDA-MB-435
K-562 leukemia = system: K-562 leukemia
UACC-257 melanoma = system: UACC-257 melanoma

## COC(=O)C1C(O)C(C)C(O)C(C)C=C(C)C2=C3C(=C(C)C(=O)c4c(O)c(c(C)c(OC(C)=O)c43)NC(=O)C(C)=C/C=C\C(C)C(O)C(C)C1O)OCO2 (centres undefined)
A549 NSCLC
  TGI: > 100 µM
NCI-H522 lung
  TGI: 39.4 µM
DU-145 prostate
  TGI: > 100 µM
SF-539 CNS
  TGI: > 100 µM
BT-549 breast
  TGI: 39.2 µM
SNB-75 CNS
  TGI: 92.9 µM
SK-MEL-28 melanoma
  TGI: 47.3 µM
MDA-MB-435
  TGI: 30.4 µM
K-562 leukemia
  TGI: 47.5 µM
UACC-257 melanoma
  TGI: 37.4 µM

## c1ccc2c(-c3nc(-c4c[nH]c5ccncc45)cs3)c[nH]c2c1
A549 NSCLC
  GI50: 2.45 µM
  TGI: 6.21 µM
NCI-H522 lung
  GI50: 1.92 µM
  TGI: 3.92 µM
DU-145 prostate
  GI50: 3.36 µM
  TGI: 11.3 µM
SF-539 CNS
  GI50: 1.79 µM
  TGI: 3.29 µM
BT-549 breast
  GI50: 8.82 µM
  TGI: 21.3 µM
SNB-75 CNS
  GI50: 10.3 µM
  TGI: 22.2 µM
SK-MEL-28 melanoma
  GI50: 1.84 µM
  TGI: 3.32 µM
MDA-MB-435
  GI50: 1.75 µM
  TGI: 3.23 µM
K-562 leukemia
  GI50: 2.05 µM
  TGI: 5.29 µM
UACC-257 melanoma
  GI50: 1.8 µM
  TGI: 3.43 µM

## COc1cc2c(cc1O)CC1c3c(cc(O)c(OC)c3-2)CCN1C (centres undefined)
A549 NSCLC
  TGI: > 100 µM
NCI-H522 lung
  TGI: > 100 µM
DU-145 prostate
  TGI: > 100 µM
SF-539 CNS
  TGI: > 100 µM
BT-549 breast
  TGI: > 100 µM
SNB-75 CNS
  TGI: > 100 µM
SK-MEL-28 melanoma
  TGI: > 100 µM
MDA-MB-435
  TGI: > 100 µM
K-562 leukemia
  TGI: > 100 µM
UACC-257 melanoma
  TGI: > 100 µM

## O=C(Nn1c(-c2ccccc2)nc2ccccc2c1=O)c1ccccc1O
A549 NSCLC
  TGI: > 100 µM
NCI-H522 lung
  TGI: > 100 µM
DU-145 prostate
  TGI: > 100 µM
SF-539 CNS
  TGI: > 100 µM
BT-549 breast
  TGI: > 100 µM
SNB-75 CNS
  TGI: > 100 µM
SK-MEL-28 melanoma
  TGI: > 100 µM
MDA-MB-435
  TGI: > 100 µM
K-562 leukemia
  TGI: > 100 µM
UACC-257 melanoma
  TGI: > 100 µM

## O=c1cc(N/N=C/c2ccc(F)cc2)c2cc(Cl)ccc2[nH]1
A549 NSCLC
  GI50: 23.5 µM
  TGI: > 100 µM
NCI-H522 lung
  GI50: 17.4 µM
  TGI: 74.3 µM
DU-145 prostate
  GI50: 33.9 µM
  TGI: > 100 µM
SF-539 CNS
  GI50: 23.6 µM
  TGI: 78.2 µM
BT-549 breast
  GI50: 15.8 µM
  TGI: 44.5 µM
SNB-75 CNS
  GI50: 12.7 µM
  TGI: 83.1 µM
SK-MEL-28 melanoma
  GI50: 19.8 µM
  TGI: > 100 µM
MDA-MB-435
  GI50: 13.4 µM
  TGI: > 100 µM
K-562 leukemia
  GI50: 13.2 µM
  TGI: 93.2 µM
UACC-257 melanoma
  GI50: 15.5 µM
  TGI: 56.5 µM

## COc1ccc(-c2nc(-c3nc4ccc(F)cc4[nH]3)c3ccccn23)cc1
A549 NSCLC
  GI50: 3.96 µM
  TGI: 28.4 µM
NCI-H522 lung
  GI50: 4.49 µM
  TGI: 25 µM
DU-145 prostate
  GI50: 10.7 µM
  TGI: 40.2 µM
SF-539 CNS
  GI50: 10.4 µM
  TGI: 45.2 µM
BT-549 breast
  GI50: 4.84 µM
  TGI: 22.9 µM
SNB-75 CNS
  GI50: 3.4 µM
  TGI: 12.4 µM
SK-MEL-28 melanoma
  GI50: 22.8 µM
  TGI: > 100 µM
MDA-MB-435
  GI50: 8.05 µM
  TGI: > 100 µM
K-562 leukemia
  GI50: 14 µM
  TGI: > 100 µM
UACC-257 melanoma
  GI50: 9.15 µM
  TGI: 57.2 µM

## C1CC2CN(CCCN3CCOCC3)C(C1)O2 (centres undefined)
A549 NSCLC
  TGI: > 100 µM
NCI-H522 lung
  TGI: > 100 µM
DU-145 prostate
  TGI: > 100 µM
SF-539 CNS
  TGI: > 100 µM
BT-549 breast
  TGI: > 100 µM
SNB-75 CNS
  TGI: > 100 µM
SK-MEL-28 melanoma
  TGI: > 100 µM
MDA-MB-435
  TGI: > 100 µM
K-562 leukemia
  TGI: > 100 µM
UACC-257 melanoma
  TGI: > 100 µM

## Cc1cc(O)c(C2=NN(c3ccc(S(N)(=O)=O)cc3)C(c3ccc(Cl)cc3)C2)c(C)c1Cl (centres undefined)
A549 NSCLC
  GI50: 5.91 µM
  TGI: 22.5 µM
NCI-H522 lung
  GI50: 6.24 µM
  TGI: 21.6 µM
DU-145 prostate
  GI50: 5.6 µM
  TGI: 17.6 µM
SF-539 CNS
  GI50: 12.3 µM
  TGI: 24.7 µM
BT-549 breast
  GI50: 13.1 µM
  TGI: 27.7 µM
SNB-75 CNS
  GI50: 10.9 µM
  TGI: 23.7 µM
SK-MEL-28 melanoma
  GI50: 11.7 µM
  TGI: 23.9 µM
MDA-MB-435
  GI50: 3.57 µM
  TGI: 14.8 µM
K-562 leukemia
  GI50: 2.24 µM
  TGI: 11.5 µM
UACC-257 melanoma
  GI50: 11.9 µM
  TGI: 26.8 µM

## COc1cc2c(cc1OCCCCCCN1CCN(CC(=O)Nc3ccc(Cl)cc3C(=O)c3ccccc3Cl)CC1)N=CC1CCCN1C2=O (centres undefined)
A549 NSCLC
  GI50: 0.251 µM
  TGI: 0.765 µM
NCI-H522 lung
  GI50: 0.143 µM
  TGI: 0.322 µM
DU-145 prostate
  GI50: 0.254 µM
  TGI: 0.715 µM
SF-539 CNS
  GI50: 0.289 µM
  TGI: 0.74 µM
BT-549 breast
  GI50: 0.252 µM
  TGI: 0.898 µM
SNB-75 CNS
  GI50: 0.169 µM
  TGI: 0.472 µM
SK-MEL-28 melanoma
  GI50: 0.185 µM
  TGI: 0.332 µM
MDA-MB-435
  GI50: 0.157 µM
  TGI: 0.304 µM
K-562 leukemia
  GI50: 0.193 µM
UACC-257 melanoma
  GI50: 0.2 µM
  TGI: 0.775 µM

## C1CC[N-]CC1.CC(=N\O)/C(C)=N/O.CC(=N\O)/C(C)=N/O.OC1[CH-]CCCC1.[Co+2]
A549 NSCLC
  GI50: 58.5 µM
  TGI: > 100 µM
NCI-H522 lung
  GI50: 15.7 µM
  TGI: 31 µM
DU-145 prostate
  GI50: 69.1 µM
  TGI: > 100 µM
SF-539 CNS
  GI50: 25.5 µM
  TGI: 71.1 µM
BT-549 breast
  GI50: 37.8 µM
  TGI: > 100 µM
SNB-75 CNS
  GI50: 26.9 µM
  TGI: > 100 µM
SK-MEL-28 melanoma
  GI50: 32.5 µM
  TGI: > 100 µM
MDA-MB-435
  GI50: 33.9 µM
  TGI: > 100 µM
K-562 leukemia
  GI50: 33.4 µM
  TGI: > 100 µM
UACC-257 melanoma
  GI50: 29.5 µM
  TGI: > 100 µM

## COC(=O)C1=C(C(=O)OC)C2(C)C=CC1O2 (centres undefined)
A549 NSCLC
  TGI: > 100 µM
NCI-H522 lung
  TGI: 5.56 µM
DU-145 prostate
  TGI: 31.8 µM
SF-539 CNS
  TGI: 33 µM
BT-549 breast
  TGI: 46 µM
SNB-75 CNS
  TGI: 66.2 µM
SK-MEL-28 melanoma
  TGI: 29.5 µM
MDA-MB-435
  TGI: 33.2 µM
K-562 leukemia
  TGI: 19.4 µM
UACC-257 melanoma
  TGI: 29.4 µM

Source: PubChem BioAssay (NCI)
